In patent US20260014125A1, “BICYCLIC-TYPE MAT2A INHIBITOR AND USE THEREOF” (HAIHE BIOPHARMA CO., LTD., priority 2022, published 2026):
pIC50: −log10 of the molar value.

Biological target: MAT2A (Homo sapiens (Human), UniProt P31153)
Test: Biochemical test: inhibition of MAT2A enzyme activity (phosphate detection, OD620)
Settings: MAT2A his-tag; 150 minutes enzymatic reaction
Source text: Experimental principle: MAT2A can catalyze the conversion of L-methionine and ATP into SAM, inorganic phosphate, and inorganic diphosphate. By adding a chromogenic reagent to the enzymatic reaction system, the content of inorganic phosphates in a sample can be quantitatively detected, thereby characterizing the enzymatic activity of MAT2A.
Experimental material: Tris (Life Science #0497); BSA (Sigma #); MAT2A his-tag (BPS #71401-1); 384 well plate (Corning #3765); L-methionine (Admas #1100469); ATP (Sigma #A7699); MgCl2 (Sigma #M8266); KCl (Sigma #7447-40-7); Brij35 (Sigma #B4184); EDTA (Sigma #E1644)
1. 1×Assaybuffer (buffer composition: Tris, KCl, MgCl2, BSA, Brij35, and EDTA; the solvent was ultrapure water) was prepared. MAT2A his-tag enzyme solution (containing 1.3 μL of MAT2A enzyme and 998.7 μL of 1×Assaybuffer per 1000 μL) and substrate mixed solution (containing 5 μL of ATP, 1.3 μL of L-methionine, and 993.7 μL of 1×Assaybuffer per 1000 μL) were prepared using 1×AssayBuffer.
2. Preparation of compound concentration gradient: The test compound was tested with a starting concentration of 10 μM, and 10 equimolar concentrations were set according to a 3-fold dilution. Specifically, firstly, the compound was diluted into 10 different concentrations of series solutions in a 384 well plate (with final detection concentrations of 10, 3.33, 1.11, 0.37, 0.123, 0.041, 0.0137, 0.0046, 0.0015, and 0.0005 μM), and then 250 nL of the above series solutions was transferred to the 384 well reaction plate using an ultrasonic pipetting system Echo550 for later use. 250 nL of 100% DMSO was added into a negative control well and a positive control well, respectively. Double well test.
3. 15 μL of MAT2A his-tag enzyme solution was added into both the compound well and the positive control well; and 15 μL of 1×Assaybuffer was added into the negative control well.
4. The 384 well plate reaction plate was centrifuged at 1000 rpm for 60 seconds, shaken, mixed well, and incubated for 15 minutes. 10 μL of substrate mixed solution was added into each experimental well of the 384 well reaction plate to initiate the reaction.
5. The 384 well reaction plate was centrifuged at 1000 rpm for 60 seconds, shaken, mixed well, and incubated for 150 minutes.
6. 50 μL of enzyme reaction termination solution Biomol was added into all experimental wells of the 384 well reaction plate to terminate the reaction, centrifuged at 1000 rpm for 60 seconds, and incubated for 15 minutes. OD620 was read and data was processed.
Data analysis: the inhibition rate (%) of the compound was calculated and fitted to obtain the IC50 of the tested compound. Calculation method for compound inhibition rate: Compound inhibition rate (%)=(OD620_max−OD620_stample)/(OD620_max−OD620_min)×100, wherein OD620_stample was the absorbance value of the sample well; OD620 min was the absorbance value of the positive control well, indicating the reading of the wells without enzyme activity; and OD620_max was the absorbance value of the negative control well, indicating the reading of the well without compound inhibition.

MAT2A, sequence (P31153 whole entry): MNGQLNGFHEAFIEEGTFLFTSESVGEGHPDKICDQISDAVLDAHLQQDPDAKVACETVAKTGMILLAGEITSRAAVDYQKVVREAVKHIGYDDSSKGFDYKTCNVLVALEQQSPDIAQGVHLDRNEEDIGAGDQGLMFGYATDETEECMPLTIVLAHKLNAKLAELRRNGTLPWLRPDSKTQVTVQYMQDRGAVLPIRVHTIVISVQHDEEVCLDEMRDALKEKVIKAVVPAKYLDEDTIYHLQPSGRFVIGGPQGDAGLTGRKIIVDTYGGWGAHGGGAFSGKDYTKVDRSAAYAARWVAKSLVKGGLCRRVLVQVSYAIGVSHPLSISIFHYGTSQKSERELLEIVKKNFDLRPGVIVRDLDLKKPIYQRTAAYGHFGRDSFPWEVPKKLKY

Row | pIC50 | Compound
1 | < 5.00 | COc1ccc(-c2cc3cn[nH]c3n(-c3ccc4nn(C)cc4c3)c2=O)cc1 [Compound 1]
2 | 7.76 | CCNc1c(-c2ccc(OC)cc2)c(=O)n(-c2ccc3nn(C)cc3c2)c2[nH]ncc12 [Compound 2]
3 | 7.71 | CCOc1c(-c2ccc(OC)cc2)c(=O)n(-c2ccc3nn(C)cc3c2)c2[nH]ncc12 [Compound 3]
4 | 7.21 | CNc1c(-c2ccc(OC)cc2)c(=O)n(-c2ccc3nn(C)cc3c2)c2[nH]ncc12 [Compound 4]
5 | 7.75 | COc1ccc(-c2c(NCC3CC3)c3cn[nH]c3n(-c3ccc4nn(C)cc4n3)c2=O)cc1 [Compound 5]
6 | 6.15 | CCNc1c(-c2ccc(OC)cc2)c(=O)n(-c2ccc(C#N)cc2)c2[nH]ncc12 [Compound 6]
7 | 7.45 | CCNc1c(-c2ccc(OC)cc2)c(=O)n(-c2ccc(=O)n(C)c2)c2[nH]ncc12 [Compound 7]
8 | 7.82 | CCNc1c(-c2ccc(OC(F)F)cc2)c(=O)n(-c2ccc3nn(C)cc3c2)c2[nH]ncc12 [Compound 9]
9 | 7.69 | CCNc1c(-c2ccc(OC)cc2)c(=O)n(-c2ccc(OC)cc2)c2[nH]ncc12 [Compound 10]
10 | 7.85 | CCNc1c(-c2ccc(Cl)cc2)c(=O)n(-c2ccc3nn(C)cc3c2)c2[nH]ncc12 [Compound 11]
11 | < 5.00 | CCNc1c(-c2ccc(Cl)cc2)c(=O)n(-c2ccc3c(c2)ncn3C)c2[nH]ncc12 [Compound 16]
12 | 7.64 | CCOc1c(-c2cccc(OC)c2)c(=O)n(-c2ccc3nn(C)cc3c2)c2[nH]ncc12 [Compound 18]
13 | 6.92 | CCOc1c(-c2ccc(OC(F)F)cc2)c(=O)n(-c2ccc3nn(C)cc3c2)c2c1cnn2C [Compound 31]
14 | 7.84 | Cn1cnc2ccc(-n3c(=O)c(-c4ccc(OC(F)F)cc4)c(OCC4CC4)c4cn[nH]c43)cc21 [Compound 32]
15 | 7.66 | CCOc1c(-c2ccc(Cl)cc2)c(=O)n(-c2ccc3ncn(CC)c3c2)c2[nH]ncc12 [Compound 34]
16 | 7.22 | CCOc1c(-c2ccc(Cl)cc2)c(=O)n(-c2ccc3ncn(C4CNC4)c3c2)c2[nH]ncc12 [Compound 35]
17 | 7.82 | Cn1cc2cc(-n3c(=O)c(-c4ccc(OC(F)F)cc4)c(OCC4CC4)c4cn[nH]c43)ccc2n1 [Compound 39]
18 | 7.25 | CCOc1c(-c2ccc(OC(F)F)cc2)c(=O)n(-c2cnc3nn(C)cc3c2)c2[nH]ncc12 [Compound 40]
19 | 7.79 | CCOc1c(-c2ccc(C)nc2)c(=O)n(-c2ccc3nn(C)cc3c2)c2[nH]ncc12 [Compound 48]
20 | 7.61 | CCOc1c(-c2ccc(Cl)cc2)c(=O)n(-c2ccc3nn(C)cc3c2)c2cn(C)nc12 [Compound 56]
21 | 7.68 | Cn1cc2cc(-n3c(=O)c(-c4ccc(Cl)cc4)c(OCCO)c4cn[nH]c43)ccc2n1 [Compound 59]
22 | 7.85 | COCCOc1c(-c2ccc(Cl)cc2)c(=O)n(-c2ccc3nn(C)cc3c2)c2[nH]ncc12 [Compound 60]
23 | 7.85 | CCOc1c(C2CCCCC2)c(=O)n(-c2ccc3nn(C)cc3c2)c2[nH]ncc12 [Compound 61]

Row | pIC50 | Compound
24 | 7.73 | CCN(C)c1c(-c2ccc(Cl)cc2)c(=O)n(-c2ccc3nn(C)cc3c2)c2[nH]ncc12 [Compound 64]
25 | 7.80 | CCOc1c(-c2ccc(C#N)cc2)c(=O)n(-c2ccc3nn(C)cc3c2)c2[nH]ncc12 [Compound 65]
26 | 7.75 | CCOc1c(-c2ccc(Cl)cc2)c(=O)n(-c2ccc3nn(C)cc3c2)c2[nH]cnc12 [Compound 67]
27 | 7.69 | CCOc1c(-c2ccc(C)nc2)c(=O)n(-c2ccc3nn(C)cc3n2)c2[nH]ncc12 [Compound 86]
28 | 7.55 | CCOc1c(-c2ccc(C(F)(F)F)nc2)c(=O)n(-c2ccc3nn(C)cc3n2)c2[nH]ncc12 [Compound 87]
29 | 7.80 | Cc1ccc(-c2c(OCC(F)(F)F)c3cn[nH]c3n(-c3ccc4nn(C)cc4n3)c2=O)cn1 [Compound 89]
30 | 7.20 | CCOc1c(-c2ccc(Cl)cc2)c(=O)n(-c2ccc3nn(C)cc3c2)c2cnn(C)c12 [Compound 100]
31 | 7.76 | CCOc1c(-c2ccc(C)nc2)c(=O)n(-c2ccc3nn(CC)cc3c2)c2[nH]ncc12 [Compound 101]
32 | 7.74 | CCCc1c(-c2ccc(Cl)cc2)c(=O)n(-c2ccc3nn(C)cc3c2)c2[nH]ncc12 [Compound 112]
33 | 7.17 | CCOc1c(-c2ccc(Cl)cc2)c(=O)n(-c2ccn3nccc3c2)c2[nH]ncc12 [Compound 114]
34 | 6.47 | CCOc1c(-c2ccc(Cl)cc2)c(=O)n(-c2ccn3nc(C)cc3n2)c2[nH]ncc12 [Compound 116]
35 | 5.95 | CCOc1c(-c2ccc(Cl)cc2)c(=O)n(-c2ccc3nn(C)cc3n2)c2c1cnn2C [Compound 121]
36 | 7.56 | CCOc1c(-c2ccc(Cl)cc2)c(=O)n(-c2ccc3nn(C)cc3c2)c2nn(CCO)cc12 [Compound 122]
37 | 7.34 | CCOc1c(-c2ccc(=O)[nH]c2)c(=O)n(-c2ccc3nn(C)cc3c2)c2[nH]ncc12 [Compound 125]
38 | 7.95 | CCSc1c(-c2ccc(Cl)cc2)c(=O)n(-c2ccc3nn(C)cc3c2)c2[nH]ncc12 [Compound 130]
39 | 7.44 | CCOc1c(-c2ccc(Cl)cc2)c(=O)n(-c2ccc3c(cnn3CCN(C)C)c2)c2[nH]ncc12 [Compound 131]
40 | 7.56 | CCOc1c(-c2ccc(C)cc2)c(=O)n(-c2ccc3nn(C)cc3n2)c2[nH]ncc12 [Compound 133]
41 | 7.75 | CCOc1c(-c2ccc(Cl)cc2)c(=O)n(-c2ccc3nn(C)nc3c2)c2nn(C)cc12 [Compound 136]
42 | 7.29 | CCOc1c(-c2ccc(Cl)cc2)c(=O)n(-c2ccc3nn(C)nc3n2)c2nn(C)cc12 [Compound 138]
43 | 6.42 | CCOc1c(-c2ccc(Cl)cc2)c(=O)n(-c2ccc3c(cnn3CCN(C)C)n2)c2[nH]ncc12 [Compound 139]
44 | 7.89 | CCOc1c(-c2ccc(Cl)cc2)c(=O)n(-c2ccc3nnn(C)c3c2)c2nn(C)cc12 [Compound 140]
45 | 7.99 | [2H]C([2H])([2H])C([2H])([2H])Oc1c(-c2ccc(Cl)cc2)c(=O)n(-c2ccc3nn(C)cc3c2)c2[nH]ncc12 [Compound 142]

Test system: KP-4 cells
Test: Human pancreatic cancer KP-4 cell activity inhibition test (CellTiter-Glo)
Type: cell-based
Settings: 5 days
Protocol: Experimental principle: after co-incubating the MAT2A inhibitor to be tested with KP-4 cells for a period of time, a cell viability measurement method based on ATP content is used to characterize the effect of the tested compound on cell viability.
Experimental material: KP-4 cells (JCRB #JCRB0182); IMDM (Gibco 912440061); fetal bovine serum (EXCELL #FND500); penicillin-streptomycin (Gibco #15140-122); 0.25% Typsin-EDTA (Gibco #252(101-072); DMSO (Sigma #D2650); 96 well plate (Corning #3610); CellTiter-Glo (Promega #G7571)
1. KP-4 cells were cultured in IMDM culture medium containing 10% e fetal bovine serum and 1% penicillin-streptomycin at 37° C. and 5% CO2 in a cell culture incubator. Only cells in logarithmic growth phase were used for subsequent experiments.
2. The cells in logarithmic growth phase were inoculated into a 96 well plate, with a seeding quantity of 500 cells per well, and incubated overnight in a cell culture incubator at 37′C and 5% CO2.
3. The compound was dissolved with DMSO, diluted with culture medium to 10 different concentrations (approximately […]), 3333.3, 1111.1, 370, 123, 41.2, 13.7, 4.6, 1.5, and 0.5 nM) before adding it to the cell plate, and cultured at 37° C. and 5% CO2 for 5 days.
4. CellTiter-Glo reagent was added, and an enzyme-linked immunosorbent assay reader was used to detect cell viability.
Data analysis: the inhibition rate (%) of the compound was calculated and fitted to obtain the IC50 of the tested compound. Calculation method for compound inhibition rate: Compound inhibition rate (%)=(Signal_max−Signal_sample)/(Signal_max−Signal_min)×100, wherein Signal_sample was the sample well reading, indicating the cell activity of the compound inhibition well; Signal_min was the positive control well reading, indicating the background activity without cells; and Signal_max was the negative control well reading, indicating the cell activity of the well without compound inhibition.

Row | pIC50 | Compound
46 | < 5.00 | COc1ccc(-c2cc3cn[nH]c3n(-c3ccc4nn(C)cc4c3)c2=O)cc1 [Compound 1]

Same assay, conditions: Homo sapiens, 120 h, 5 days

Row | pIC50 | Compound
47 | 7.15 | CCNc1c(-c2ccc(OC)cc2)c(=O)n(-c2ccc3nn(C)cc3c2)c2[nH]ncc12 [Compound 2]
48 | 7.19 | CCOc1c(-c2ccc(OC)cc2)c(=O)n(-c2ccc3nn(C)cc3c2)c2[nH]ncc12 [Compound 3]
49 | 7.55 | CNc1c(-c2ccc(OC)cc2)c(=O)n(-c2ccc3nn(C)cc3c2)c2[nH]ncc12 [Compound 4]
50 | 7.55 | COc1ccc(-c2c(NCC3CC3)c3cn[nH]c3n(-c3ccc4nn(C)cc4n3)c2=O)cc1 [Compound 5]
51 | < 5.00 | CCNc1c(-c2ccc(OC)cc2)c(=O)n(-c2ccc(=O)n(C)c2)c2[nH]ncc12 [Compound 7]
52 | 7.61 | CCNc1c(-c2ccc(OC(F)F)cc2)c(=O)n(-c2ccc3nn(C)cc3c2)c2[nH]ncc12 [Compound 9]
53 | 6.21 | CCNc1c(-c2ccc(OC)cc2)c(=O)n(-c2ccc(OC)cc2)c2[nH]ncc12 [Compound 10]
54 | 8.31 | CCNc1c(-c2ccc(Cl)cc2)c(=O)n(-c2ccc3nn(C)cc3c2)c2[nH]ncc12 [Compound 11]
55 | 7.72 | CCOc1c(-c2ccc(OC(F)F)cc2)c(=O)n(-c2ccc3nn(CCOC)cc3c2)c2[nH]ncc12 [Compound 21]
56 | 7.05 | CCOc1c(-c2ccc(OC(F)F)cc2)c(=O)n(-c2ccn3nccc3c2)c2[nH]ncc12 [Compound 23]
57 | 6.59 | CCOc1c(-c2ccc(OC(F)F)cc2)c(=O)n(-c2ccc3nccn3c2)c2[nH]ncc12 [Compound 24]
58 | 6.56 | CCOc1c(-c2ccc(OC(F)F)cc2)c(=O)n(-c2ccc3ncnn3c2)c2[nH]ncc12 [Compound 25]
